Entries after “also recorded” stand apart in the source; their conditions may differ.
What was measured:
[1] = biological target: T1, fibrin (acellular clot phantoms) (Homo sapiens, UniProt P02671+P02675+P02679); assay: Binding of 99mTc monomeric construct to acellular clot phantoms (Scatchard plot)
T1 construct: 100 μL of human plasma was quickly mixed with 3 unit of thrombin solution; from tissue; host or cells: human plasma clotted with thrombin
T1 sequence (P02671 20-644 isoform P02671-2 limits assumed): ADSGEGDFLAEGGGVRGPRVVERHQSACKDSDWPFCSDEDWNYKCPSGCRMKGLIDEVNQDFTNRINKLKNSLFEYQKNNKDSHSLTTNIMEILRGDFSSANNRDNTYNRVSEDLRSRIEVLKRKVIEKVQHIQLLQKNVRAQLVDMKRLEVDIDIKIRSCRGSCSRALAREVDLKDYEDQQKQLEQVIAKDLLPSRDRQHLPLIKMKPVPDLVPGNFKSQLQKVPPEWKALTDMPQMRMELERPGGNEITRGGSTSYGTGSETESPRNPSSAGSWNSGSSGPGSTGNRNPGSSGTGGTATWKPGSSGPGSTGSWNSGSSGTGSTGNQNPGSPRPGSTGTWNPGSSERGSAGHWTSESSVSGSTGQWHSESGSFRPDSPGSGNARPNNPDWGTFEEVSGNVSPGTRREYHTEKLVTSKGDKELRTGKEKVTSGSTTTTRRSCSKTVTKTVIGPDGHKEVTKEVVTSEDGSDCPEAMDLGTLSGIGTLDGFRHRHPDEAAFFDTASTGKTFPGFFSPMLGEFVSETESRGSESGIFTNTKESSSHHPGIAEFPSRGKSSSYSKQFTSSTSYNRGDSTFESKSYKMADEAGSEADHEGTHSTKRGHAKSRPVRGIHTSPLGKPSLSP
T1 sequence (P02675 45-491 limits assumed): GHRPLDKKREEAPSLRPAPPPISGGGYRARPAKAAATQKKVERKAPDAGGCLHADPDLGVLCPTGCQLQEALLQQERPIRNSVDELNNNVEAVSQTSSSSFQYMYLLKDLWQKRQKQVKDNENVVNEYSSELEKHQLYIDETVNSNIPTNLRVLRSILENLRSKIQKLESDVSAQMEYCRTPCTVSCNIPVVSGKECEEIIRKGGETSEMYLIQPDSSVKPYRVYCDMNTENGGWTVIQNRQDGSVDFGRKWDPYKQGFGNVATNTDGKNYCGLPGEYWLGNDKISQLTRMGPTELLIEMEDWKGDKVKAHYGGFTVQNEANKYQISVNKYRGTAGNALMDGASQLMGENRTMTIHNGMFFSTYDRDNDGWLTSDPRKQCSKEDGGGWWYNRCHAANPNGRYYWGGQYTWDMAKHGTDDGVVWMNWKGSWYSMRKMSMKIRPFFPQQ
T1 sequence (P02679 27-437 isoform P02679-2 limits assumed): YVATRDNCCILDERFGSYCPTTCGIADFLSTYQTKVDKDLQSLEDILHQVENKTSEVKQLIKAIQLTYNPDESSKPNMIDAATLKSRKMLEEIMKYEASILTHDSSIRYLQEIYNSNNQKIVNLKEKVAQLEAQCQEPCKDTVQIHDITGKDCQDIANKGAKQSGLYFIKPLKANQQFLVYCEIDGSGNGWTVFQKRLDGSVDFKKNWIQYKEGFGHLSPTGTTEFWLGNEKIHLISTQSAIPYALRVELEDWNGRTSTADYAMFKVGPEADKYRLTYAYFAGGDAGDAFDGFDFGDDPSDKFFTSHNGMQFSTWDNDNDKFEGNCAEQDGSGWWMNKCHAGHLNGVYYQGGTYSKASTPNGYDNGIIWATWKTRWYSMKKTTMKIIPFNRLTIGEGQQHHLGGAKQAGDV
Protocol: Clot phantoms were generated using a typical procedure wherein 100 μL of human plasma was quickly mixed with 3 unit of thrombin solution. The resulting solution was then transferred into a plastic cylinder tube. Once clots were formed, they were placed each in 4 mL 0.1 M PBS buffer, pH7.0 solution.
The fibrin-binding monomer construct labeled with ^99mTc (10 mCi/350 μg) was prepared and analyzed by TLC as described in the examples above. The construct was diluted to generate a dilution series comprising 1, 5, 10, 15, 25, and 30 μg peptide construct in a total volume of 0.5 mL 0.1 M PBS at pH 7.4.
The monomeric construct was then combined with clot phantoms and incubated for 30 min at 37° C. in a water bath. Clot phantoms were separated from the solution by centrifugation device, and radioactivity was measured in the clot and the supernatant using a calibrated dosimeter. The experiment was repeated for three times and data were analyzed by Scatchard plot and regression analysis (FIG. 3). […] The dissociation constant (Kd) and the number of binding sites per clot were also determined.

[2] = 99mTc label retention with excess cysteine, clot phantoms (Example 5); format: physicochemical; details: 0.25 mg cysteine in 0.5 mL PBS, 120 min, 37° C.
Protocol: (§1) In a parallel experiment, binding of the fibrin-binding monomeric construct to acellular clot phantoms in the presence of excess cysteine, or in the presence of 50% serum was also tested. For excess cysteine conditions, 0.25 mg of cysteine in 0.5 mL PBS was also combined with the monomeric construct and clot phantoms. The experiment was conducted as described above, and incubated for 120 min at 37° C. in a water bath. […] Cys is used to test the stability of the metal on the agent, and binding of the agent without the metal would look like lower binding. Instability and loss of the metal in the presence of serum could have accounted for the lower binding of the monomeric peptide, but the metal was stable. […] Thus the peptide binding was interfered with by off-target association with something in serum, likely albumen. This was consistent with previous reports describing the serum binding of the monomeric fibrin-binding peptide.

[3] = biological target: T1, fibrin (acellular clot phantoms); assay: Clot phantom binding in presence of 50% serum (Example 5)
Protocol: as §1

[4] = biological target: T2, fibrin clot (Homo sapiens, UniProt P02671+P02675+P02679); assay: Fibrin binding affinity, acellular fibrin clot assay (Hill slope model); details: uniform fibrin clots in PBS, read-out: dissociation constant (Kd)
T2 construct: admixing 100 μl of fresh human plasma with 3 units thrombin (Sigma Chemical); from tissue; host or cells: fresh human plasma clotted with thrombin (Sigma Chemical)
T2 sequence (P02671 20-644 isoform P02671-2 limits assumed): T1 sequence (P02671 20-644 isoform P02671-2 limits assumed)
T2 sequence (P02675 45-491 limits assumed): T1 sequence (P02675 45-491 limits assumed)
T2 sequence (P02679 27-437 isoform P02679-2 limits assumed): T1 sequence (P02679 27-437 isoform P02679-2 limits assumed)
Protocol: (§2) Acellular fibrin clot assays of probe affinity, radiolabel stability, and plasma interference: Acellular fibrin clots were used: 1) to characterize the binding affinity of ^99mTc-F1A and ^99mTc-F4A, 2) to assess the stability of ^99mTc chelation, and 3) to evaluate the extent of plasma interference of fibrin binding. Specifically, uniform clots were produced by quickly admixing 100 μl of fresh human plasma with 3 units thrombin (Sigma Chemical). The mixture was pipetted into uniform cylindrical plastic tubes. Once formed, clots were washed repeatedly in 0.1 M PBS buffer (pH 7.0) then stored in same until use at 4° C.
Fibrin binding affinity: ^99mTc-F1A or ^99mTc-F4A (20 μCi) were incubated with the clot samples at 37° C. for 30 minutes with 1, 5, 10, 15, 25, and 30 μg cold monomer supplemented with 0.1 M PBS pH 7.4 to bring each test volume total to 0.5 ml. The fibrin clots were separated from unbound radioactivity by repeated centrifugation and washing then counted in a calibrated well counter (Wizard 3, Perkin Elmer). Results, adjusted for decay, were used to estimate dissociation constant (kd) using the Hill slope model, Y=Bmax*X^h/(Kd^h+X^h) (MatLab). Total fibrin concentration was estimated from plasma fibrinogen estimated to be 0.735 nmoles per clot.

[5] = biological target: T2, fibrin clot; assay: Plasma interference on fibrin clot binding (50:50 plasma:PBS)
Protocol: as §2
Assessment of ^99mTc-F1A and ^99mTc-F4A radiolabel stability and plasma interference: Radiolabeled F1A and F4A were bound to clots in the presence of marked excess cysteine to evaluate the stability of the ^99mTc label in triplicate.^49 99mTc-F1A or ^99mTc-F4A (20 μCi) supplemented with 0.1 M PBS pH 7.4 (total volume of 0.5 ml) were incubated with fibrin clot samples at 37° C. for 30 minutes. Similarly, the 0.1 M PBS buffer diluted 50% with fresh human plasma (total volume of 0.5 ml) was used to assess potential matrix interference on radiolabeled peptide binding in triplicate. In both instances, fibrin clots were separated from unbound radioactivity by repeated centrifugation, washed, then counted in a calibrated well counter (Wizard 3, Perkin Elmer).

[6] = system: fibrin clots; assay: Ex vivo LVAD flow study using a mock loop; format: binding; details: 10,000 RPM, 6 L/min, 2 minutes, 50:50 plasma:PBS, 0.5 mCi
Protocol: The high shear (10,000 RPM) and high flow (6 L/min) of the LVAD, which is required to pump the entire circulating blood volume of the patient every minute, places severe demands on the binding affinity and clot retention of the nuclear probe. […] The ½″ plastic tubing circuit was filled with a 50:50 human plasma:PBS mixture (200 ml). Uniform fibrin clots were secured with a highly porous, thin gauze netting within a plastic ½″ chamber immediately proximal to the LVAD inlet secured. ^99mTc-F1A or ^99mTc-F4A were injected into the mock loop and allowed to target the clots at the full flux rate for 2 minutes.
Ex vivo LVAD flow study using a mock loop: A LVAD (Heartmate II) driven by a computer-controlled console was inserted into a 200 ml mock flow loop comprised of ½″ plastic tubing interconnecting a PBS/Fresh Plasma (50:50) reservoir, an injection port, a media drainage port, and an inline ½″ plastic chamber. Uniform fibrin clots produced by mixing fibrinogen, thrombin, and calcium and aged 24 hours were secured within the inline chamber using a highly porous, single thread layer of cotton gauze. […] Radioactive circulating plasma/PBS was drained and replaced with PBS, which circulated for 2 minutes to remove unbound radioactivity. Clot radioactivity was counted in a calibrated gamma well counter and the results adjusted for decay.

- binding site per clot [1]: 8.48E+14
- binding site per mg [1]: 1.21E+15
- effect of excess cysteine on coupling of the 99mTc radiolabel [2]: did not impact the secure coupling
- binding of labeled peptide to clot in presence of 50% serum [3]: greatly diminished
- Kd [4]: ~10.2 µM
Substance: 99mTc-labeled monomer: fibrin homing peptide QWECPYGLCWIQ linked through PEG2 spacer to technetium chelating sequence HHE [^99mTc-F1A]
- fibrin clot binding in 50:50 plasma:PBS versus PBS [5]: severely compromised; also recorded: dramatically reduced
- clot binding and retention in LVAD mock loop [6]: very low signal level; also recorded: very close to background level counts

Reference: patent US11052163B2, “Homing agents” (Washington University, priority 2013, dated 2021)
